Data on 41 compounds can be found in patent US20170253607A1, “LONG-ACTING HIV PROTEASE INHIBITOR” (Shionogi & Co., Ltd., priority 2014, published 2017).

SMILES strings stand for the structures.

This experiment deals with HIV-1 PR (Human immunodeficiency virus type 1 group M subtype B, UniProt P04585). Briefly: HIV-protease inhibitory activity assay (FRET peptide substrate). The following applies: Test Example 1. Type of experiment: biochemical. The essentials: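 Fluorescence recovery at ex 485/em 535 nm reports cleavage of a quenched FRET peptide (2 μmol/L final) by 0.83 ng enzyme over 60 minutes at room temperature. Buffer was NaAc pH 4.8 with NaCl, EDTA, DTT and Tween 20. IC50 values came from four-parameter logistic regression of % inhibition.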
Usually IC50 stands for the midpoint of a concentration-inhibition curve. High values mean a need for much substance, low ones inhibition by little substance. For `COc1ccc(S(=O)(=O)N(CC(C)C)CC(O)C(Cc2ccc(NCc3cccc(-c4sc5c(c4C(=O)O)CC(C)(C)CC5)c3F)cc2)NC(=O)OC2COC3(C)OCCC23)cc1` (centres unmarked) [Compound I-543], inhibition was half-maximal at 2.14 nM (IC50).
To `COc1ccc(S(=O)(=O)N(CC(C)C)CC(O)C(Cc2ccc(NCc3cccc(-c4sc5c(c4C(=O)O)CC(C)(C)CC5)c3Cl)cc2)NC(=O)OC2COC3(C)OCCC23)cc1` (centres unmarked) [Compound I-544] belongs 3.65 nM; to `COc1ccc(S(=O)(=O)N(CC(C)C)CC(O)C(Cc2ccc(NCc3c(-c4sc5c(c4C(=O)O)CC(C)(C)CC5)cccc3[N+](=O)[O-])cc2)NC(=O)OC2COC3(C)OCCC23)cc1` (centres unmarked) [Compound I-546], 1.86 nM.
The result for `COc1ccc(S(=O)(=O)N(CC(C)C)CC(O)C(Cc2ccc(NCc3cc(Cl)ccc3-c3sc4c(c3C(=O)O)CC(C)(C)CC4)cc2)NC(=O)OC2COC3(C)OCCC23)cc1` (centres unmarked) [Compound I-547] reads 2.28 nM; that for `COc1ccc(S(=O)(=O)N(CC(C)C)CC(O)C(Cc2ccc(NCc3ccc(O)cc3-c3sc4c(c3C(=O)O)CC(C)(C)CC4)cc2)NC(=O)OC2COC3(C)OCCC23)cc1` (centres unmarked) [Compound I-548], 1.49 nM.
The result for `COc1ccc(S(=O)(=O)N(CC(C)C)CC(O)C(Cc2ccc(NCc3cc(C)cc(-c4sc5c(c4C(=O)O)CC(C)(C)CC5)c3)cc2)NC(=O)OC2COC3(C)OCCC23)cc1` (centres unmarked) [Compound I-549] reads 1.55 nM; that for `COc1ccc(S(=O)(=O)N(CC(C)C)CC(O)C(Cc2ccc(NCc3ccc(-c4sc5c(c4C(=O)O)CC(C)(C)CC5)nc3)cc2)NC(=O)OC2COC3(C)OCCC23)cc1` (centres unmarked) [Compound I-551], 1.34 nM; that for `COc1ccc(S(=O)(=O)N(CC(C)C)CC(O)C(Cc2ccc(NCc3cc(OC)cc(-c4sc5c(c4C(=O)O)CC(C)(C)CC5)c3OC)cc2)NC(=O)OC2COC3(C)OCCC23)cc1` (centres unmarked) [Compound I-553], 1.92 nM.
For the compound `COc1ccc(S(=O)(=O)N(CC(C)C)CC(O)C(Cc2ccc(NCc3ccc(-c4sc5c(c4C(=O)O)CC(C)(C)CC5)c(OC)c3)cc2)NC(=O)OC2COC3(C)OCCC23)cc1` (centres unmarked) [Compound I-554], the IC50 turned out to be 1.77 nM.
Regarding `COc1ccc(S(=O)(=O)N(CC(C)C)CC(O)C(Cc2ccc(NCc3cc(C)c(-c4sc5c(c4C(=O)O)CC(C)(C)CC5)cc3C)cc2)NC(=O)OC2COC3(C)OCCC23)cc1` (centres unmarked) [Compound I-556], the IC50 amounted to 5.45 nM.
To `COc1ccc(S(=O)(=O)N(CC(C)C)CC(O)C(Cc2ccc(NCc3cncc(-c4sc5c(c4C(=O)O)CC(C)(C)CC5)c3)cc2)NC(=O)OC2COC3(C)OCCC23)cc1` (centres unmarked) [Compound I-557] belongs 1.67 nM; to `COc1ccc(S(=O)(=O)N(CC(C)C)CC(O)C(Cc2ccc(NCc3cccc(-c4sc5c(c4C(=O)O)CC(C)(C)CC5)c3OCc3ccccc3)cc2)NC(=O)OC2COC3(C)OCCC23)cc1` (centres unmarked) [Compound I-558], 4.99 nM.
`COc1ccc(S(=O)(=O)N(CC(C)C)CC(O)C(Cc2ccc(NCc3cnc(-c4sc5c(c4C(=O)O)CC(C)(C)CC5)c(C)c3)cc2)NC(=O)OC2COC3(C)OCCC23)cc1` (centres unmarked) [Compound I-559] had an IC50 of 1.87 nM.
The compound `COc1ccc(S(=O)(=O)N(CC(C)C)CC(O)C(Cc2ccc(NCc3cc(O)cc(-c4sc5c(c4C(=O)O)CC(C)(C)CC5)c3)cc2)NC(=O)OC2COC3(C)OCCC23)cc1` (centres unmarked) [Compound I-562] had an IC50 of 1.98 nM.
The result for `COc1ccc(S(=O)(=O)N(CC(C)C)CC(O)C(Cc2ccc(NCc3ccc(Oc4ccc(-c5sc6c(c5C(=O)O)CC(C)(C)CC6)cc4)cc3)cc2)NC(=O)OC2COC3(C)OCCC23)cc1` (centres unmarked) [Compound I-564] reads 14.2 nM; that for `COc1ccc(S(=O)(=O)N(CC(C)C)CC(O)C(Cc2ccc(NCc3ccc(C#N)cc3-c3sc4c(c3C(=O)O)CC(C)(C)CC4)cc2)NC(=O)OC2COC3(C)OCCC23)cc1` (centres unmarked) [Compound I-565], 1.75 nM; that for `COc1ccc(S(=O)(=O)N(CC(C)C)CC(O)C(Cc2ccc(NCc3nc4ccccc4cc3-c3sc4c(c3C(=O)O)CC(C)(C)CC4)cc2)NC(=O)OC2COC3(C)OCCC23)cc1` (centres unmarked) [Compound I-568], 1.54 nM.
The result for `COc1ccc(S(=O)(=O)N(CC(C)C)CC(O)C(Cc2ccc(N(C)CC3=C(c4sc5c(c4C(=O)O)CC(C)(C)CC5)COC3)cc2)NC(=O)OC2COC3(C)OCCC23)cc1` (centres unmarked) [Compound I-569] reads 2.22 nM; that for `COc1ccc(S(=O)(=O)N(CC(C)C)CC(O)C(Cc2ccc(N(C)Cc3cocc3-c3sc4c(c3C(=O)O)CC(C)(C)CC4)cc2)NC(=O)OC2COC3(C)OCCC23)cc1` (centres unmarked) [Compound I-570], 1.87 nM.
To `COc1ccc(S(=O)(=O)N(CC(C)C)CC(O)C(Cc2ccc(NCc3ccc(Oc4ccc(-c5sc6c(c5C(=O)O)CC(C)(C)CC6)c(C)c4)cc3)cc2)NC(=O)OC2COC3(C)OCCC23)cc1` (centres unmarked) [Compound I-571] belongs 22.2 nM; to `COc1ccc(S(=O)(=O)N(CC(C)C)CC(O)C(Cc2ccc(N(C)Cc3ccc(Oc4ccc(-c5sc6c(c5C(=O)O)CC(C)(C)CC6)c(C)c4)cc3)cc2)NC(=O)OC2COC3(C)OCCC23)cc1` (centres unmarked) [Compound I-572], 30 nM; to `COc1ccc(S(=O)(=O)N(CC(C)C)CC(O)C(Cc2ccc(N3CCC(c4ccc(-c5sc6c(c5C(=O)O)CC(C)(C)CC6)cc4)C3)cc2)NC(=O)OC2COC3(C)OCCC23)cc1` (centres unmarked) [Compound I-576], 4.95 nM.
As to `COc1ccc(S(=O)(=O)N(CC(C)C)CC(O)C(Cc2ccc(N3CCC(c4ccc(-c5sc6c(c5C(=O)O)CC(C)(C)CC6)cc4)C3)cc2)NC(=O)OC2COC3(C)OCCC23)cc1` (centres unmarked) [Compound I-577], the IC50 turned out to be 6.47 nM.
The result for `COc1ccc(S(=O)(=O)N(CC(C)C)CC(O)C(Cc2ccc(N(C)Cc3ccccc3NC(=O)c3sc4c(c3C(=O)O)CC(C)(C)CC4)cc2)NC(=O)OC2COC3(C)OCCC23)cc1` (centres unmarked) [Compound I-587] reads 1.71 nM; that for `COc1ccc(S(=O)(=O)N(CC(C)C)CC(O)C(Cc2ccc(N(C)Cc3ccccc3C(=O)N(C)c3sc4c(c3C(=O)O)CC(C)(C)CC4)cc2)NC(=O)OC2COC3(C)OCCC23)cc1` (centres unmarked) [Compound I-590], 2.82 nM.
The compound `CC(C)CN(CC(O)C(Cc1ccc(NCc2ccccc2C(=O)Nc2sc3c(c2C(=O)O)CC(C)(C)CC3)cc1)NC(=O)OC1COC2(C)OCCC12)S(=O)(=O)c1ccc2c(c1)OCO2` (centres unmarked) [Compound I-591] yielded an IC50 of 3.16 nM.
To `CC(C)CN(CC(O)C(Cc1ccc(NCc2ccccc2C(=O)Nc2sc3c(c2C(=O)O)CC(C)(C)CC3)cc1)NC(=O)OC1COC2(C)OCCC12)S(=O)(=O)c1ccc2ncsc2c1` (centres unmarked) [Compound I-592] belongs 3.19 nM.
`COc1ccc(S(=O)(=O)N(CC(C)C)C[C@@H](O)[C@H](Cc2ccc(NCC(=O)Nc3sc4c(c3C(=O)O)CC(C)(C)CC4)cc2)NC(=O)OC2CO[C@@]3(C)OCC[C@@H]23)cc1` (some centres unmarked) [Compound I-593]: the concentration for half-maximal inhibition (IC50) came out at 1.71 nM.
For the compound `COc1ccc(S(=O)(=O)N(CC(C)C)CC(O)C(Cc2ccc(N3CCC(Oc4ccccc4C(=O)Nc4sc5c(c4C(=O)O)CC(C)(C)CC5)C3)cc2)NC(=O)OC2COC3(C)OCCC23)cc1` (centres unmarked) [Compound I-595], it took 2.17 nM to reach half-maximal inhibition (IC50).
For `COc1ccc(S(=O)(=O)N(CC(C)C)CC(O)C(Cc2ccc(N3CCC(Oc4cccc(-c5sc6c(c5C(=O)O)CC(C)(C)CC6)c4C)C3)cc2)NC(=O)OC2COC3(C)OCCC23)cc1` (centres unmarked) [Compound I-597], half-maximal inhibition (IC50) was put at 7.37 nM.
The compound `COc1ccc(S(=O)(=O)N(CC(C)C)CC(O)C(Cc2ccc(NCC3CCCCN3C(=O)c3sc4c(c3C(=O)O)CC(C)(C)CC4)cc2)NC(=O)OC2COC3(C)OCCC23)cc1` (centres unmarked) [Compound I-604] showed an IC50 of 2.19 nM.
The result for `COc1ccc(S(=O)(=O)N(CC(C)C)CC(O)C(Cc2ccc(NCC3CCCCN3C(=O)c3sc4c(c3C(=O)O)CC(C)(C)CC4)cc2)NC(=O)OC2COC3(C)OCCC23)cc1` (centres unmarked) [Compound I-605] reads 1.96 nM; that for `COc1ccc(S(=O)(=O)N(CC(C)C)CC(O)C(Cc2ccc(NCc3cc(C)ccc3NC(=O)c3sc4c(c3C(=O)O)CC(C)(C)CC4)cc2)NC(=O)OC2COC3(C)OCCC23)cc1` (centres unmarked) [Compound I-610], 2.16 nM.
Compound `COc1ccc(S(=O)(=O)N(CC(C)C)CC(O)C(Cc2ccc(NCC3CCCCC3NC(=O)c3sc4c(c3C(=O)O)CC(C)(C)CC4)cc2)NC(=O)OC2COC3(C)OCCC23)cc1` (centres unmarked) [Compound I-611] registered an IC50 of 1.95 nM.
For `COc1ccc(S(=O)(=O)N(CC(C)C)CC(O)C(Cc2ccc(NCc3cc4ccccc4cc3NC(=O)c3sc4c(c3C(=O)O)CC(C)(C)CC4)cc2)NC(=O)OC2COC3(C)OCCC23)cc1` (centres unmarked) [Compound I-612], the IC50 amounted to 2.11 nM.
To `COc1ccc(S(=O)(=O)N(CC(C)C)CC(O)C(Cc2ccc(NCC3CCCCC3C(=O)Nc3sc4c(c3C(=O)O)CC(C)(C)CC4)cc2)NC(=O)OC2COC3(C)OCCC23)cc1` (centres unmarked) [Compound I-615] belongs 3.37 nM; to `COc1ccc(S(=O)(=O)N(CC(C)C)CC(O)C(Cc2ccc(N(C)CC3CCCCC3C(=O)Nc3sc4c(c3C(=O)O)CC(C)(C)CC4)cc2)NC(=O)OC2COC3(C)OCCC23)cc1` (centres unmarked) [Compound I-616], 4.2 nM.
The result for `COc1ccc(S(=O)(=O)N(CC(C)C)CC(O)C(Cc2ccc(NCCOc3ccccc3-c3sc4c(c3C(=O)O)CC(C)(C)CC4)cc2)NC(=O)OC2COC3(C)OCCC23)cc1` (centres unmarked) [Compound I-619] reads 2.48 nM; that for `COc1ccc(S(=O)(=O)N(CC(C)C)CC(O)C(Cc2ccc(N3C(=O)c4cccc(-c5sc6c(c5C(=O)O)CC(C)(C)CC6)c4C3=O)cc2)NC(=O)OC2COC3(C)OCCC23)cc1` (centres unmarked) [Compound I-620], 2.22 nM; that for `COc1ccc(S(=O)(=O)N(CC(C)C)CC(O)C(Cc2ccc(N3C(=O)c4ccc(-c5sc6c(c5C(=O)O)CC(C)(C)CC6)cc4C3=O)cc2)NC(=O)OC2COC3(C)OCCC23)cc1` (centres unmarked) [Compound I-621], 1.84 nM.
The result for `COc1ccc(S(=O)(=O)N(CC(C)C)CC(O)C(Cc2ccc(N(C)CC3CCCCC3C(=O)Nc3sc4c(c3C(=O)O)CC(C)(C)CC4)cc2)NC(=O)OC2COC3(C)OCCC23)cc1` (centres unmarked) [Compound I-622] reads 3.71 nM.
